Data on 34 compounds can be found in patent publication US11548894B2, “Benzamide or benzamine compounds useful as anticancer agents for the treatment of human cancers” (The Board of Regents of the University of Texas System, priority 2015, dated 2023).

Each structure is given as a SMILES string. Where a name gives a salt, the structure may show the parent alone.

By EC50 is commonly meant the concentration that produces a half-maximal response.

The subject of one assay is Mut6 cells (TD-NSC). The assay is described as follows: luminescence-based Celltiter-Glo cell viability assay (ATP levels) on Mut6 tumor derived neuronal stem cells. Set-up: species or system mouse. Particulars: ATP activity as measure of viability, 96 hours; Hydrochloride; read-out: EC50 (TD-NSC). The text has this: A mouse colony with 100% incidence of GBM and with conditional knockout of p53, pTEN and NF1 genes (Mut6; glioblastoma) was used to isolate primary neuronal stem cells from GBM tumors cultured in 5% Oxygen and in serum free media with defined growth factors. Primary cells from multiple tumors were pooled for high throughput screening with controls against the University of Texas Southwestern (UTSW) compound file, which encompasses ˜200,000 synthetic compounds that represent a large chemical space from several commercial vendors, including 1200 marketed drugs from the Prestwick Chemical Library®, and 600 compounds that went to pre-clinical tests from the NIH library.
A luminescence-based Celltiter-Glo® assay was performed to measure cell viability, using ATP levels as the readout. In brief, opaque-walled multiwell plates with Mut6 cells in culture medium (25 μl per well, 384-well plates) were prepared. Control wells containing medium without cells were prepared to obtain a value for background luminescence. Test compounds were added to experimental wells, and incubated according to culture protocol. The plate and its contents were incubated at 37° C., 5% […] for 96 hours. An ATP standard curve was generated immediately prior to adding the CellTiter-Glo® Reagent. A volume of CellTiter-Glo® Reagent equal to the volume of cell culture medium present in each well (25 μl of reagent to 25 μl of medium containing cells for a 384-well plate) was added. The contents were mixed for 2 minutes on an orbital shaker to induce cell lysis. The plate was allowed to incubate at room temperature for 10 minutes to stabilize the luminescent signal and luminescence recorded. (e.g. GloMax®, Lumistar, SPECTROstar, PHERAstar FS).
Compound 4C12 served as initial lead compound for analog development and for additional studies. […] See Wager, T T et al, “Moving beyond rules: the development of a central nervous system multi-parameter-optimization (CNS MPO) approach to enable alignment of drug-like properties,” ACS Chem. Neurosci. 1(6): 435-49 (2010). IC50 curves for the analog compounds plotted as ATP activity (y axis, a measure of viability) vs. concentration (nM) (x-axis) are shown in FIG. 9.
On the technique in general: ATP-based viability assays read luminescence as a measure of living cells.
As to `CCN1CCCC1CNC(=O)c1ccc(Sc2ccc(F)cc2)c([N+](=O)[O-])c1` (stereo not shown) [DS-1-191, N-((1-ethylpyrrolidin-2-yl)methyl)-4-((4-fluorophenyl)thio)-3-nitrobenzamide Hydrochloride], the EC50 is 95 nM. For the compound `CCN(CC)CCNC(=O)c1ccc(Sc2ccc(F)cc2)c([N+](=O)[O-])c1` [DS-1-239, N-(2-(diethylamino)ethyl)-4-((4-fluorophenyl)thio)-3-nitrobenzamide Hydrochloride], the EC50 worked out at 59 nM. The same measure, in the same setting: with `O=C(NCCN1CCOCC1)c1ccc(Sc2ccc(F)cc2)c([N+](=O)[O-])c1` [DS-1-241, 4-((4-fluorophenyl)thio)-N-(2-morpholinoethyl)-3-nitrobenzamide Hydrochloride] the figure was 44 nM.

The same assay, now with this note: Mus musculus, 96 h, ATP activity as measure of viability, 96 hours; read-out: EC50 (TD-NSC).
With `O=C(NCc1ccccn1)c1ccc(Sc2ccc(F)cc2)c([N+](=O)[O-])c1` [DS-1-023, 4-((4-fluorophenyl)thio)-3-nitro-N-(pyridin-2-ylmethyl)benzamide], the concentration giving a half-maximal response (EC50) was above 1000 nM. Still for that read-out and setting: the value for `CCN1CCCC1CNC(=O)c1ccc(Sc2ccc(C(F)(F)F)cc2)c([N+](=O)[O-])c1` (stereo not shown) [DS-1-065, N-((1-ethylpyrrolidin-2-yl)methyl)-3-nitro-4-((4-(trifluoromethyl)phenyl)thio)benzamide] was 86 nM. The same measure, in the same setting: with `CCN1CCCC1CNC(=O)c1ccc(Sc2ccc(F)c(F)c2)c([N+](=O)[O-])c1` (stereo not shown) [DS-1-067, 4-((3,4-difluorophenyl)thio)-N-((1-ethylpyrrolidin-2-yl)methyl)-3-nitrobenzamide] the figure was 118 nM; with `CCN1CCCC1CNC(=O)c1ccc(Sc2ccccn2)c([N+](=O)[O-])c1` (stereo not shown) [DS-1-071, N-((1-ethylpyrrolidin-2-yl)methyl)-3-nitro-4-(pyridin-2-ylthio)benzamide], 419 nM. On the same count and under the same terms, the value for `CCN1CCCC1CNC(=O)c1ccc(Sc2ccccc2F)c([N+](=O)[O-])c1` (stereo not shown) [DS-1-075, N-((1-ethylpyrrolidin-2-yl)methyl)-4-((2-fluorophenyl)thio)-3-nitrobenzamide] was 102 nM. Consider `CCN1CCCC1CNC(=O)c1ccc(Sc2ccc(NC(C)=O)cc2)c([N+](=O)[O-])c1` (stereo not shown) [DS-1-077, 4-((4-acetamidophenyl)thio)-N-((1-ethylpyrrolidin-2-yl)methyl)-3-nitrobenzamide], for which the half-maximal effective concentration (EC50) was above 1000 nM. `O=C(NCCN1CCOCC1)c1ccc(Sc2ccc(F)cc2)c([N+](=O)[O-])c1` [DS-1-089, 4-((4-fluorophenyl)thio)-N-(2-morpholinoethyl)-3-nitrobenzamide]: the EC50 turned out to be 25 nM. Still for that read-out and setting: with `CCN1CCCC1CNC(=O)c1ccc(Oc2ccc(F)cc2)c([N+](=O)[O-])c1` (stereo not shown) [DS-1-103, N-((1-ethylpyrrolidin-2-yl)methyl)-4-(4-fluorophenoxy)-3-nitrobenzamide] the figure was 36 nM; with `CCN1CCCC1CNC(=O)c1ccc(Nc2ccc(F)cc2)c([N+](=O)[O-])c1` (stereo not shown) [DS-1-105, N-((1-ethylpyrrolidin-2-yl)methyl)-4-((4-fluorophenyl)amino)-3-nitrobenzamide], 255 nM; with `CCN1CCCC1CNC(=O)c1ccc(Sc2ccc(F)cc2)cc1` (stereo not shown) [DS-1-117, N-((1-ethylpyrrolidin-2-yl)methyl)-4-((4-fluorophenyl)thio)benzamide], 394 nM.

Turning to `CC[N+]1(C)CCCC1CNC(=O)c1ccc(Sc2ccc(F)cc2)c([N+](=O)[O-])c1` (stereo not shown) [DS-1-119, 1-ethyl-2-((4-((4-fluorophenyl)thio)-3-nitrobenzamido)methyl)-1-methylpyrrolidin-1-ium Iodide], the EC50 is above 1000 nM. Same read-out and setting: with `CCN1CCCC1CNC(=O)c1ccc(Sc2ccc(C(C)C)cc2)c([N+](=O)[O-])c1` (stereo not shown) [DS-1-123, N-((1-ethylpyrrolidin-2-yl)methyl)-4-((4-isopropylphenyl)thio)-3-nitrobenzamide] the figure was 516 nM. As for `CCN1CCCC1CNC(=O)c1ccc([S+]([O-])c2ccc(F)cc2)c([N+](=O)[O-])c1` (stereo not shown) [DS-1-135, N-((1-ethylpyrrolidin-2-yl)methyl)-4-((4-fluorophenyl)sulfinyl)-3-nitrobenzamide], the EC50 was above 1000 nM. On the same count and under the same terms, the value for `CCN1CCCC1CNC(=O)c1ccc(SC2CCCCC2)c([N+](=O)[O-])c1` (stereo not shown) [DS-1-139, 4-(cyclohexylthio)-N-((1-ethylpyrrolidin-2-yl)methyl)-3-nitrobenzamide] was 192 nM; that for `CCN1CCCC1CNC(=O)c1ccc(Sc2ccc(N)cc2)c([N+](=O)[O-])c1` (stereo not shown) [DS-1-177, 4-((4-aminophenyl)thio)-N-((1-ethylpyrrolidin-2-yl)methyl)-3-nitrobenzamide] was 340 nM.

Take `CCN1CCCC1CNC(=O)c1ccc(Sc2ccc(C(=O)O)cc2)c([N+](=O)[O-])c1` (stereo not shown) [DS-1-179, 4-((4-(((1-ethylpyrrolidin-2-yl)methyl)carbamoyl)-2-nitrophenyl)thio)benzoic Acid Hydrochloride]: the EC50 is above 1000 nM. On to `CCN1CCCC1CNC(=O)c1ccc(-c2ccc(F)cc2)c([N+](=O)[O-])c1` (stereo not shown) [DS-1-181, N-((1-ethylpyrrolidin-2-yl)methyl)-4′-fluoro-2-nitro-[1,1′-biphenyl]-4-carboxamide], for which the EC50 is above 1000 nM. The same measure, in the same setting: with `CCN1CCCC1CNC(=O)c1ccc(-c2cccc(F)c2)c([N+](=O)[O-])c1` (stereo not shown) [DS-1-183, N-((1-ethylpyrrolidin-2-yl)methyl)-3′-fluoro-2-nitro-[1,1′-biphenyl]-4-carboxamide] the figure was above 1000 nM; with `CCN1CCCC1CNC(=O)c1ccc(Sc2ccc(Br)cc2)c([N+](=O)[O-])c1` (stereo not shown) [DS-1-185, 4-((4-bromophenyl)thio)-N-((1-ethylpyrrolidin-2-yl)methyl)-3-nitrobenzamide], 62 nM; with `CN(CCN)CCNC(=O)c1ccc(Sc2ccc(F)cc2)c([N+](=O)[O-])c1` [DS-1-195, N-(2-((2-aminoethyl)(methyl)amino)ethyl)-4-((4-fluorophenyl)thio)-3-nitrobenzamide], above 1000 nM. The same measure, in the same setting: with `CN(CCNC(=O)CCCC[C@@H]1SC[C@@H]2NC(=O)N[C@@H]21)CCNC(=O)c1ccc(Sc2ccc(F)cc2)c([N+](=O)[O-])c1` [DS-1-205] the figure was 40000 nM. Regarding `CCN1CCCC1CNC(=O)c1ccc(Sc2ccc(F)cc2)nc1` (stereo not shown) [DS-1-209, N-((1-ethylpyrrolidin-2-yl)methyl)-6-((4-fluorophenyl)thio)nicotinamide], the EC50 is above 1000 nM. Same read-out and setting: with `CCN1CCCC1CNC(=O)c1ccc(NS(=O)(=O)c2ccc(F)cc2)c([N+](=O)[O-])c1` (stereo not shown) [DS-1-213, N-((1-ethylpyrrolidin-2-yl)methyl)-4-(4-fluorophenylsulfonamido)-3-nitrobenzamide] the figure was above 1000 nM.

As for `CCN1CCCC1CNC(=O)c1ccc(Sc2ccc(O)cc2)c([N+](=O)[O-])c1` (stereo not shown) [DS-1-217, N-((1-ethylpyrrolidin-2-yl)methyl)-4-((4-hydroxyphenyl)thio)-3-nitrobenzamide], the EC50 is 485 nM.

As to `CCN1CCCC1CNC(=O)c1ccc(Sc2ccc(F)cc2)c(N)c1` (stereo not shown) [DS-1-225, 3-amino-N-((1-ethylpyrrolidin-2-yl)methyl)-4-((4-fluorophenyl)thio)benzamide], the EC50 amounted to 192 nM. On the same count and under the same terms, with `CCN1CCCC1CNC(=O)c1ccc(Sc2ccc(F)cc2)c(C(N)=O)c1` (stereo not shown) [DS-1-231-M, N^1-((1-ethylpyrrolidin-2-yl)methyl)-4-((4-fluorophenyl)thio)isophthalamide] the figure was above 1000 nM; with `C#CCOc1ccc(Sc2ccc(C(=O)NCC3CCCN3CC)cc2[N+](=O)[O-])cc1` (stereo not shown) [DS-1-261, N-((1-ethylpyrrolidin-2-yl)methyl)-3-nitro-4-((4-(prop-2-yn-1-yloxy)phenyl)thio)benzamide], 269 nM. The same measure, in the same setting: the value for `CCOC(=O)c1cc(F)ccc1Sc1ccc(C(=O)NCC2CCCN2CC)cc1[N+](=O)[O-]` (stereo not shown) [DS-1-265, Ethyl 2-((4-(((1-ethylpyrrolidin-2-yl)methyl)carbamoyl)-2-nitrophenyl)thio)-5-fluorobenzoate] was above 1000 nM; that for `CCN1CCCC1CNC(=O)c1ccc(Sc2cccc3cccnc23)c([N+](=O)[O-])c1` (stereo not shown) [DS-1-269, N-((1-ethylpyrrolidin-2-yl)methyl)-3-nitro-4-(quinolin-8-ylthio)benzamide] was 535 nM. The same measure, in the same setting: with `CCN1CCCC1CNC(=O)c1ccc(Sc2ccc(C)cc2)c([N+](=O)[O-])c1` (stereo not shown) [DS-1-271, N-((1-ethylpyrrolidin-2-yl)methyl)-3-nitro-4-(p-tolylthio)benzamide] the figure was 55 nM.

The assay is the same for the next values; noted with them: Mus musculus; ATP activity as measure of viability, 96 hours; read-out: EC50 (TD-NSC).
As for `CCN1CCCC1CNC(=O)c1ccc(Sc2ccc([N+](=O)[O-])cc2)c([N+](=O)[O-])c1` (stereo not shown) [DS-1-137, N-((1-ethylpyrrolidin-2-yl)methyl)-3-nitro-4-((4-nitrophenyl)thio)benzamide], the EC50 was determined as 69 nM.
